We go through 14 compounds from ChEMBL document CHEMBL1201862, “PubChem BioAssay data set” (2004).

Test [1] is described as follows: general mammalian cell viability loss – inhibitor set, cherry-pick, set 2, cytotoxicity control for miR-122 modulator project, dose response (AID 720697). The test is classed as functional, cell-based.
The nature of test [2]: activation of miR-122 Renilla sensor silencing – cell-based, Huh7 psiCHECK-miR122, Renilla luciferase, cherry-picked, dose response (AID 651956).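 Also: huh7 hepatoma cells stably carrying a psiCHECK-2 miR-122 sensor plasmid; renilla luciferase signal reporting endogenous miR-122 activity after 48 h compound exposure.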 The format is functional.
The nature of test [3]: inhibitors of EBV LMP1 NF-kappaB signaling – cell-based, luciferase reporter, luminescence, dry powder, set 2, dose response (AID 624376). The format is functional. A general note: Reporter assays use an easily measured gene product as a stand-in for the process of interest.
Test [4] in a line: blockers of bursicon-stimulated LGR2 cAMP reporter – cell-based, HEK293, CRE-luciferase reporter, cherry pick, set 2, dose response (AID 743343).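 Also: transfected cells were stimulated with diluted bursicon conditioned medium after compound addition.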 The test is classed as functional.
A further test deals with H9c2. The test is described as follows: cells. The test is classed as functional, cell-based. The following applies: Rattus norvegicus, H9c2, Myocardium.
The nature of test [5]: A549 cell cytotoxicity, dose response, cytotoxicity control, plate reader, cherry-pick, antagonist series (AID 743412). The test is classed as functional, cell-based.
Test [6] can be described thus: toxicity toward HepG2 liver cells – cell-based, plate reader, cherry-pick, antagonist series, cytotoxicity control, dose response (AID 743416). The test is classed as functional.
Another test concerns the target Prothrombin (Homo sapiens, UniProt P00734). The test is described as follows: Thrombin 1536 HTS Dose Response Confirmation. [Related pubchem assays: 1046 (Thrombin 1536 HTS; hits were confirmed in this assay)]. The format is functional.
The nature of test [7]: blockade of melanocortin 4 receptor signaling – cell-based, plate reader, cherry pick, counter-screen for LGR2 antagonist project, dose response (AID 743444).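 Also: transfected HEK 293 cells stimulated with alpha-MSH peptide; potency of inhibitors of the alpha-MSH evoked signal.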 The format is functional. Background: The purpose of a counterscreen is to sort out artefacts and off-target activity.
In test [8] the target is T1, Apoptotic protease-activating factor 1 (Homo sapiens, UniProt O14727).
T1 sequence (O14727 whole entry): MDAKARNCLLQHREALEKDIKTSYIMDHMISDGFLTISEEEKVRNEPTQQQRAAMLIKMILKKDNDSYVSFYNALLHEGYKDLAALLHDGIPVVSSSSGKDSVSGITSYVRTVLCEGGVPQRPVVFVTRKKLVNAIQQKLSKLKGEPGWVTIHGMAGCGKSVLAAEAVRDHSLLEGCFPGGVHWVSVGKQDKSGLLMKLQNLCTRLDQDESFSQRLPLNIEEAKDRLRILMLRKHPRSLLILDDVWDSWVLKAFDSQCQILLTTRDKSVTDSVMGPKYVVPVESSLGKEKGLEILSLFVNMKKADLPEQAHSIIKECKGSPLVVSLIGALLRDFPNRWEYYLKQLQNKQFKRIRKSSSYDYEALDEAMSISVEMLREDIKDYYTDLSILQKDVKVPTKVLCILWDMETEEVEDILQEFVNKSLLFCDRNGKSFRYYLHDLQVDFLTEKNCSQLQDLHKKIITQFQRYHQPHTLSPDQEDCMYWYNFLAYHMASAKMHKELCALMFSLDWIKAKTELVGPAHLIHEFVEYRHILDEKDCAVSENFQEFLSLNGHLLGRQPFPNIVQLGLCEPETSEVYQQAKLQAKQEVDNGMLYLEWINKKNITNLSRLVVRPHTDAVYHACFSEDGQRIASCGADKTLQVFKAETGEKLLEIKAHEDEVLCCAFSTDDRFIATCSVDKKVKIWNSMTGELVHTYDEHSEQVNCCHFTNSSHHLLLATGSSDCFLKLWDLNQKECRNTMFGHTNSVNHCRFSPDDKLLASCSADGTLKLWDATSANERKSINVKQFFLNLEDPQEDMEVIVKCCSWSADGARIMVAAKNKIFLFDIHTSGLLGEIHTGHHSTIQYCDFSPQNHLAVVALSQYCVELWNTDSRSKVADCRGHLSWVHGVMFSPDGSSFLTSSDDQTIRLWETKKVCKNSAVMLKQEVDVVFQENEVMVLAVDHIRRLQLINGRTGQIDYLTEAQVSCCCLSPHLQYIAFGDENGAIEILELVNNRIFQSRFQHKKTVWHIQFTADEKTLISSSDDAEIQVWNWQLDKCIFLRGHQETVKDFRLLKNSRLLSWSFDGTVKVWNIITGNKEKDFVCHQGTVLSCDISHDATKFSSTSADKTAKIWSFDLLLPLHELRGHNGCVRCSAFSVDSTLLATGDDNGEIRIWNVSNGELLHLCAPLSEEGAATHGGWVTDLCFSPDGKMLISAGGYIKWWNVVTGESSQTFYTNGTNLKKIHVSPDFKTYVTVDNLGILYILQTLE
The test is classed as functional.

The target in test [9] is Tyrosyl-DNA phosphodiesterase 2 (Homo sapiens, UniProt O95551). The test can be described thus: potency against TDP2 phosphodiesterase activity – biochemical, epi absorbance, IC50, dose response (AID 743297).
Test [10] can be described thus: viability inhibitors of stage V gametocytes – luminescence, dose response (AID 1117278).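 Also: gametocytes exposed to compound for 24 hours.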 The test is classed as functional, cell-based.
Test [11] in a line: viability loss in human Jurkat cells – cell-based, luminescence, cytotoxicity control for P. falciparum gametocyte viability project, dose response (AID 1117277).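 Also: potency reflects loss of cellular ATP meaning fewer viable cells.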 The format is functional.
In the next test the target is Kallikrein-7 (Homo sapiens, UniProt P49862). The test can be described thus: Fluorescence Intensity-based biochemical primary high throughput dose response assay to identify activators of kallikrein-7 (K7) zymogen.
The next test concerns the target Major prion protein (Homo sapiens, UniProt P04156). The test is classed as functional, cell-based.
Test [12] can be described thus: cytotoxicity toward HCT116 cells – cell-based, CellTiter-Glo luminescence, IC50, dose response (AID 1117332). The test is classed as functional. The following applies: HCT-116. Background: Cellular ATP, detected with luciferase, serves as a proxy for viable cell number.
The nature of test [13]: Reduced DLD-1 viability, concentration-response, CellTiter-Glo luminescence (AID 1117352). The test is classed as functional.
A short description of test [14]: SNU-C1 cell viability reduction, dose response, CellTiter-Glo luminescence (AID 1117323). The format is functional, cell-based.
The nature of test [15]: cytotoxicity toward Colo320 cells – cell-based, CellTiter-Glo luminescence, IC50, dose response (AID 1117334). The format is functional. As to conditions: COLO 320.
Test [16] is described as follows: cytotoxicity toward HT-29 cells – cell-based, CellTiter-Glo luminescence, IC50, dose response (AID 1117330). The test is classed as functional.
Test [17] in a line: RKO cell viability reduction, dose response, CellTiter-Glo luminescence (AID 1117322). The test is classed as functional.
Test [18] in a line: HCT116 cell viability decrease, GSK3B pretreatment – CellTiter-Glo, IC50, dose response (AID 1117339). The test is classed as functional. As to conditions: HCT-116.
The nature of test [19]: rise of 2N DNA cells, HeLa – IC50, dose response (AID 1117349). The test is classed as functional, cell-based.
Test [20] is described as follows: rise of 4N DNA cells, HeLa – IC50, dose response (AID 1117351). The test is classed as functional, cell-based.
Test [21] can be described thus: CellTiter-Glo luminescence survival assay, SW480 colon tumor line, concentration-response curve, half-maximal inhibitory concentration (AID 1117338). The format is functional.
A short description of test [22]: microbe, parasite or virus in culture. The test is classed as functional. The following applies: Mycobacterium tuberculosis.
A short description of test [23]: toxicity to human hepatoma HepG2 cells – cell-based, cherry-picked samples, cytotoxicity control, dose response (AID 1159577). The format is functional.
Test [24] in a line: P. falciparum Dd2 growth inhibitors, dose response, SYBR Green, cherry-picked samples (AID 1159567). The format is functional, cell-based.
Test [25] is described as follows: viability loss in THP-1 monocytes – THP-1 cells, cytotoxicity control for Vif-APOBEC3G degradation inhibitor project, dose response (AID 1117359). The test is classed as functional. As to conditions: THP-1.
A short description of test [26]: growth inhibition of yeast DHODH-expressing 3D7 parasites – SYBR Green, dry powder samples, dose response (AID 1159570).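 Also: parasite growth measured after 72 hours of compound exposure.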 The test is classed as functional, cell-based.
A short description of test [27]: growth inhibition of PfATP4-mutant resistant parasites – NITD609-resistant line, SYBR Green, dry powder, dose response (AID 1159571).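 Also: parasites synchronized at ring stage by sorbitol before testing.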 The test is classed as functional, cell-based.
Test [28] is described as follows: Dd2 malaria parasite growth inhibition potency – SYBR Green, dry powder samples, dose response (AID 1159566).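 Also: potency for growth inhibition with lower SYBR green DNA signal.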 The test is classed as functional, cell-based.
Test [29] in a line: toxicity to human HepG2 hepatoma cells – cell-based, plate reader, dry powder samples, cytotoxicity control, dose response (AID 1159569).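 Also: inhibitor potency with signal falling toward the positive control level.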 The test is classed as functional.

Activity calls are given as the source filed them.

Broadly, the AC50 is the midpoint of the concentration-response curve, whichever way the signal moves. Regarding `COc1cccc(S(=O)(=O)N(C)C[C@@H]2Oc3cc(C4=CCCCC4)ccc3S(=O)(=O)N([C@H](C)CO)C[C@H]2C)c1`, the AC50 is 0.502 µM (active) in [1] and 30.2 µM (active) in test [2]. Also, the AbsAC35 in [3] was determined as 85.29 µM.
By IC50 is commonly meant the midpoint of a concentration-inhibition curve. Consider `COc1cc(C(=O)Nc2nc(-c3cccs3)cs2)cc(OC)c1OC`, for which the AC50 is 23.3 µM (active) in [4], > 52 µM (inactive) in test [5], > 52 µM (inactive) in test [6] and 27.7 µM (active) in [7]. The values for the IC50 in the test with H9c2 and on Prothrombin were > 79 µM (inactive) and 2.64 µM (active), respectively.
As for `COc1cc2c(cc1O)[C@@H]1Cc3ccc(OC)c(O)c3CN1CC2` [SCOULERINE], the IC50 was 16.3 µM (active) in test [8] and > 128 µM (inactive) in [9].
Regarding `Nc1nc(SCC(=O)N2CCCC2)nc(O)c1NC(=O)c1cccs1`, the IC50 in test [10] is > 109 µM (inactive); in test [11], > 83.2 µM (inactive).
One may read the EC50 as the concentration needed to bring the measured effect to its halfway point. For the compound `Cc1nn(CCc2nnn[nH]2)c2nc(C(F)(F)F)cc(C(F)(F)F)c12`, the EC50 on Kallikrein-7 was > 69.5 µM (inactive).
With `COc1cc2cc(Br)cc(Br)c2nc1C`, the IC50 in “cells” is > 138 µM (inactive); at Major prion protein it was 4.51 µM (active).
For `CCOC(=O)c1ccc(NC(=O)c2ccc(CN3CCOCC3)cc2)cc1`, in test [1], the AC50 is 19.3 µM (active).
Take `CCCSc1ccc2[nH]c(NC(=O)OC)nc2c1` [ALBENDAZOLE]: the IC50 in test [12] was 0.112 µM (active); in test [13] it was 0.108 µM (active); in test [14], > 20 µM (inactive); in [15] it was 0.502 µM (active); in [16], > 20 µM (inactive); in test [17] it was 0.165 µM (active). The IC50 in test [18] was 0.158 µM (active); in test [19], 0.0656 µM (active); in [20], 0.0612 µM (active); in test [21] it was > 20 µM (inactive).
Turning to `CC1CCC(NC(=O)c2cc3c(s2)CCCC3)CC1` (stereo unspecified), the IC50 in “cells” is > 138 µM (inactive); on Major prion protein, 4.39 µM (active). Besides, in test [22], the CC50 is > 40 µM (active).
As for `COc1ccccc1C#Cc1ccc([C@H]2[C@@H](C#N)N(C(=O)C3CCC3)[C@@H]2CO)cc1`, the AC50 is > 39 µM (inactive) in test [23] and 4.98 µM (active) in test [24].
Regarding `COC(=O)CCCC(=O)NC(C)c1cnn(-c2ccccc2C)c1C` (stereo unspecified), the IC50 in test [10] was > 109 µM (inactive); in test [11] it was > 83.3 µM (inactive).
With `CCc1oc2ccccc2c1C(=O)c1cc(I)c(O)c(I)c1` [BENZIODARONE], the concentration for half-maximal inhibition (IC50) in test [12] is 0.003 µM (active); in test [13], 0.003 µM (active); in test [14], 0.001 µM (active); in test [15] it was 0.003 µM (active); in [16], 0.001 µM (active); in [17] it was 0.003 µM (active). Besides, the IC50 was 0.001 µM (active) in [18], > 10 µM (inactive) in [19], > 10 µM (inactive) in [20] and 0.001 µM (active) in test [21].
For the compound `O=[N+]([O-])c1ccc2c([N+](=O)[O-])ccc3c2c1CC3`, the CC50 in test [25] was > 40 µM (active).
Turning to `COc1cccc(C#Cc2ccc([C@@H]3[C@@H](CO)N(C(=O)C4CCCCC4)[C@H]3C#N)cc2)c1`, the AC50 in test [26] is 2 µM (active); in [23], > 39 µM (inactive); in [27], 2.06 µM (active); in [24], 2.6 µM (active); in [28], 1.72 µM (active); in test [29] it was 24.5 µM (active).
